HC50 data for 1 substance are collected here from publication PMC9254247, “Dual-sensitive antibacterial peptide nanoparticles prevent dental caries” (Theranostics, 2022).

This data set has as its system fresh mice erythrocytes. Type of data set: cell-based, mouse. The following applies: PBS pH 7.4; 30 min; 37 °C. From the text: Peptide and different pH of culture medium prepared. The pH of BHI medium was adjusted by HCl and NaOH. All peptides, including lycosin- I, pHly-1, s-pHly-1 were synthesized on a Rink amide-AM resin using the SPPS
(9- fluorenyl-methoxycarbonyl solid-phase peptide synthesis) method as reported previously1. Then peptides were cleaved from the resin using TFA/1,2- ethanedithiol/thioanisole/anisole (90/5/3/2 (v/v)), precipitated in cold diethyl ether and the collected precipitate was dried by air -drying . The prepared peptides were purified by reverse phase- HPLC (RP-HPLC) and their molecular weights were determined by MALDI-TOF MS.
Hemolytic assay. Approximately 4 % (in volume) of the mouse erythrocyte s were prepared by diluting fresh erythrocytes to 25-fold dilution with PBS buffer (pH 7.4).
The stock peptide solution ([…]) diluted by PBS solution to reach various concentrations (200 μL) was placed in a 1.5 mL sterile microfuge tube, followed by the addition of 200 μ L o f erythrocyte suspension. The mixture was incubated at 37 °C for 30 min. Then, the mixture was centrifuged at 3,500 rpm for 5 min to collect the supernatant. Aliquots (100 μL) of the supernatant were removed to 96-well plates, and the absorbance was detected at 450 nm using a microplate reader (Multiskan Spectrum, BioTek Inc., USA). Untreated erythrocyte suspension in an equal volume of PBS solution and 0.1% Triton X-100 were used as the negative control and positive […]
Isolation and culture of clinical S.mutans strains. Ethical approval of the study and the written consent/permission forms were obtained from Institutional Review Board (IRB) at Hunan Normal University prior to the study. For each child, written permission form was reviewed and signed by their legal guardians. Plaque -biofilm samples were collected from patients, including 16 Middle-aged and young patients and 4 children (age between 48 and 72 months) diagnosed with severe early childhood caries (S-ECC) in Changsha Stomatological Hospital. […]

No end group written: not given here.

With “LHQHLHQHAIFHAIIHMAHFWIK-NH2 [s-pHly-1 NPs]”, the HC50 (usually the concentration that lyses half of the red blood cells) worked out at 423.0 µM.
